# Reference: patent publication US5624923A, “Tricyclic diazepine vasopressin antagonists and oxytocin antagonists” (priority 1995, dated 1997)
# Where two headings read alike, the source gives them in different places.
# Assays:
# [1] = target: T1, Human V2 Vasopressin Receptor (Homo sapiens, UniProt P30518); assay: Binding to Membranes of Mouse Fibroblast Cell Line (LV-2) Transfected with the cDNA Expressing the Human V2 Vasopressin Receptor
# T1 construct: expressed in transfected cells; host or cells: mouse fibroblast cell line LV-2
# Protocol: Binding to Membranes of Mouse Fibroblast Cell Line (LV-2) Transfected with the cDNA Expressing the Human V2 Vasopressin Receptor
# Flasks of 175 ml capacity, containing attached cells grown to confluence, are cleared of culture medium by aspiration. The flasks containing the attached cells are rinsed with 2×5 ml of phosphate buffered saline (PBS) and the liquid aspirated off each time. Finally, 5 ml of an enzyme free dissociation Hank's based solution (Specialty Media, Inc., Lafayette, N.J.) is added and the flasks are left undisturbed for 2 min. The content of all flasks is. poured into a centrifuge tube and the cells pelleted at 300× g for 15 min. The Hank's based solution is aspirated off and the cells homogenized with a polytron at setting #6 for 10 sec in 10.0 mM Tris.HCl buffer, pH 7.4 containing 0.25M sucrose and 1.0 mM EDTA. The homogenate is centrifuged at 1500× g for 10 min to remove ghost membranes. The supernatant fluid is centrifuged at 100,000× g for 60 min. to pellet the receptor protein. Upon completion, the pellet is resuspended in a small volume of 50.0 mM Tris. HCl buffer, pH 7.4. The protein content is determined by the Lowry method and the receptor membranes are suspended in 50.0 mM Tris.HCl buffer containing 0.1 mM phenylmethylsulfonylfluoride (PMSF) and 0.2% bovine serum albumin (BSA) to give 2.5 mg receptor protein per ml of suspension.
# Arginine^8, vasopressin (S.A. 75.0 Ci/mmole) at 0.8 nM and the reaction initiated by the addition of 80.0 μl of tissue membranes (200.0 μg tissue protein). The plates are left undisturbed on the bench top for 120 min to reach equilibrium. Non specific binding is assessed in the presence of 1.0 μM of unlabeled ligand, added in 20 μl volume. For test compounds, these are solubilized in 50% dimethylsulfoxide (DMSO) and added in 20.0 μl volume to a final incubation volume of 200 μl. Upon completion of binding, the content of each well is filtered off, using a Brandel® cell Harvester (Gaithersburg, Md.). The radioactivity trapped on the filter disk by the ligand-receptor complex is assessed by liquid scintillation counting in a Packard LS Counter, with an efficiency of 65% for tritium. The data are analyzed for IC50 values by the LUNDON-2 program for competition (LUNDON SOFTWARE, Ohio).
# [2] = target: T2, V1 Receptor Subtype in Human Platelet (Homo sapiens, UniProt P37288); assay: Binding to Vasopressin V1 receptor subtype in Human Platelet Membranes; conditions: for IC50: human platelet membranes; for inhibition at 1 µM: 1.5 h, human platelet
# T2 construct: tissue Hudson Valley Blood Services, Westchester Medical Center, Valhalla, N.Y; host or cells: human platelets (frozen platelet rich plasma)
# Protocol: Radioligand Binding Experiments with Human Platelet Membranes (a) Platelet Membrane Preparation: Frozen platelet rich plasma (PRP), (Platelet Source: Hudson Valley Blood Services, Westchester Medical Center, Valhalla, N.Y.) are thawed to room temperature. The tubes containing the PRP are centrifuged at 16,000×g for 10 min. at 4° C. and the supernatant fluid discarded. […] The suspension is recentrifuged at 16,000× g for 10 min. This washing step is repeated one more time. The wash discarded and the lysed pellets homogenized in low ionic strength buffer of Tris.HCl, 5.0 mM, pH 7.5 containing 5.0 mM EDTA. The homogenate is centrifuged at 39,000× g for 10 min. The resulting pellet is resuspended in Tris. […] The final pellet is resuspended in 50.0 mM Tris. HCl buffer pH 7.4 containing 120 mM NaCl and 5.0 mM KCl to give 1.0-2.0 mg protein per ml of suspension. […] Platelet Membranes […] Then add 20 μl of [^3 H]Ligand (Manning or […] Vasopressin), to give final concentrations ranging from 0.01 to 10.0 nM. Initiate the binding by adding 80.0 μl of platelet suspension (approx. 100 μg protein). Mix all reagents by pipetting the mixture up and down a few times. Non specific binding is measured in the presence of 1.0 μM of unlabeled ligand (Manning or […] Vasopressin). Let the mixture stand undisturbed at room temperature for ninety (90) min. Upon this time, rapidly filter off the incubate under vacuum suction over GF/B filters, using a Brandel Harvester. Determine the radioactivity caught on the filter disks by the addition of liquid scintillant and counting in a liquid scintillator.
# [3] = target: T3, Rat Hepatic V1 Receptors (Rattus norvegicus, UniProt P30560); assay: Binding Assay to Rat Hepatic V1 Receptors
# T3 construct: Rat liver plasma membranes expressing the vasopressin V1 receptor subtypes; from tissue; host or cells: rat liver plasma membranes
# [4] = target: T4, Rat Kidney Medullary V2 Receptors (Rattus norvegicus, UniProt Q00788); assay: Binding Assay to Rat Kidney Medullary V2 Receptors; conditions: 1 μM, rat
# T4 construct: Medullary tissues from rat kidneys are dissected out; from tissue; host or cells: rat kidney medulla membranes
# Summary of the method: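 IC50 derived from competition curves; bound tritium counted by liquid scintillation after filtration. Rat medullary kidney membranes (Tris-HCl pH 7.4, BSA, PMSF) were incubated 120 min to equilibrium with radioligand and test compound (added in 50% DMSO). Nonspecific binding: 1.0 μM unlabeled ligand.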
# [5] = LV-2 cell membranes, human V2, read-out: V2 IC50 (**)
# T2 sequence (P37288 whole entry): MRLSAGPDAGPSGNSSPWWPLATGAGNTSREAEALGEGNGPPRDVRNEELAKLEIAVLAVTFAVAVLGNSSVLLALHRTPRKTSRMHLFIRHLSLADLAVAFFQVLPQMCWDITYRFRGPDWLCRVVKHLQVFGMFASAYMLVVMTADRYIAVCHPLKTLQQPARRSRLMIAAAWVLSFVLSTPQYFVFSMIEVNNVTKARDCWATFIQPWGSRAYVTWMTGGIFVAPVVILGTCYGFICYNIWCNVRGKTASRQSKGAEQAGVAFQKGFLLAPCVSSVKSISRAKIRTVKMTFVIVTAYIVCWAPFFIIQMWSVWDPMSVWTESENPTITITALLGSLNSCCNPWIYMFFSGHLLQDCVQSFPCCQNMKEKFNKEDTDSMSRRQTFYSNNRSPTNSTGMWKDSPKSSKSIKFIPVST
# T1 sequence (P30518 whole entry): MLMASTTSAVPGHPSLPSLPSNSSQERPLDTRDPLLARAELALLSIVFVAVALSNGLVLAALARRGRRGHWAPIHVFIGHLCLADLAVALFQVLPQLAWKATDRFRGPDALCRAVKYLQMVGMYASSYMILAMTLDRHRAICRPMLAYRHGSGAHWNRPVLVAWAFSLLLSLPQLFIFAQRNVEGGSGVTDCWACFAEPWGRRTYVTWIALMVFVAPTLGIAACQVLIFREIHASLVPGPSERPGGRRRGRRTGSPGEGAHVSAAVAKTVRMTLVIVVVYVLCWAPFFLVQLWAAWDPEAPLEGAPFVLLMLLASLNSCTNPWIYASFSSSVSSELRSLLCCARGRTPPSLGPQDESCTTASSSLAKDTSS
# T3 sequence (P30560 whole entry): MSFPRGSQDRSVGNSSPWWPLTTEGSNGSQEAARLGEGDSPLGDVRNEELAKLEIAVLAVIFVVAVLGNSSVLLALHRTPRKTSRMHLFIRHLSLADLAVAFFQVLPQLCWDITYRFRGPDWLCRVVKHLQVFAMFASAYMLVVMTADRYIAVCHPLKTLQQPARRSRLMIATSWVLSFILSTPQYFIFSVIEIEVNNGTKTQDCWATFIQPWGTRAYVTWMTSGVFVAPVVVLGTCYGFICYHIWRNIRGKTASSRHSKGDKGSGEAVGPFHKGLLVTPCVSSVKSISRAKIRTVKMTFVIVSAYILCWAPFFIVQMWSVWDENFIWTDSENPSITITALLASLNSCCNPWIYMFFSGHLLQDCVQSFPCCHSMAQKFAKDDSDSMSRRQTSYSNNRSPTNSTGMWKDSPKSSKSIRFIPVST
# T4 sequence (Q00788 whole entry): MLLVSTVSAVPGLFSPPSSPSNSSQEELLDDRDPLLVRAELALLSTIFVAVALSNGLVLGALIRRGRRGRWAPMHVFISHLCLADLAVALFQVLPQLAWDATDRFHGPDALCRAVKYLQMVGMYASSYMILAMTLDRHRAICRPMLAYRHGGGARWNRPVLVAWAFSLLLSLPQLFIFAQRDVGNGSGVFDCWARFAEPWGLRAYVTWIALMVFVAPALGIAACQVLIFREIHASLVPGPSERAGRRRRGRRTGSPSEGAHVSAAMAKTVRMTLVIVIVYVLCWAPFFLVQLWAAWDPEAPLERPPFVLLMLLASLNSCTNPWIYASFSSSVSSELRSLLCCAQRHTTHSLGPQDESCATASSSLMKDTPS
"IC50 [1, 5] [nM]",IC50 [2] [nM],Structure (SMILES),further results
6,200,"O=C(Nc1ccc(C(=O)N2Cc3cccn3Cc3ccccc32)c(Cl)c1)c1ccc(F)cc1C(F)(F)F [Example 707, N-[4-(5H-pyrrolo[2,1-c][1,4]benzodiazepin-10(11H)-ylcarbonyl)-3-chlorophenyl]-2-(trifluoromethyl)-4-fluorobenzamide]",–
65,12400,"O=C(Nc1ccc(C(=O)N2Cc3cccn3Cc3ccccc32)c(Cl)c1)c1ccc(C(F)(F)F)cc1F [Example 696, N-[4-(5H-pyrrolo[2,1-c][1,4]benzodiazepin-10(11H)-ylcarbonyl)-3-chloro-phenyl]-2-fluoro-4-(trifluoromethyl)benzamide]",–
22,220,"O=C(Nc1ccc(C(=O)N2Cc3cccn3Cc3ccccc32)cc1)c1cccc2ccccc12 [Example 690, N-[4-(5H-pyrrolo[2,1-c][1,4]benzodiazepin-10(11H)-ylcarbonyl)phenyl]-1-naphthylcarboxamide]",–
–,–,"COc1cc(C(=O)N2Cc3cccn3Cc3ccccc32)ccc1NC(=O)c1cc(C)ccc1C [Example 704, N-[4-(5H-pyrrolo[2,1-c][1,4]benzodiazepin-10(11H)-ylcarbonyl)-2-methoxyphenyl]-2,5-dimethylbenzamide]",inhibition at 1 µM ([1]; human V2): 92%; inhibition at 1 µM [2]: 100%
–,–,"CSc1ccc(Cl)c(C(=O)Nc2ccc(C(=O)N3Cc4cccn4Cc4ccccc43)c(Cl)c2)c1 [Example 700, N-[4-(5H-pyrrolo[2,1-c][1,4]benzodiazepin-10(11H)-ylcarbonyl)-3-chloro-phenyl]-2-chloro-5-(methylthio)benzamide]","inhibition at 10 µM ([1]; 10 μM, human V2): 100%; inhibition at 1 µM [2]: 77%"
10,1700,"Cc1ccc(F)cc1C(=O)Nc1ccc(C(=O)N2CCc3cccn3-c3ccccc32)c(Cl)c1 [Example 612, N-[4-[(6,7-Dihydro-5H-pyrrolo[1,2-a]-[1,5]benzodiazepin-5-yl)carbonyl]-3-chlorophenyl]-5-fluoro-2-methyl-benzamide]",–
540,85,"O=C(Nc1ccc(C(=O)N2Cc3cccn3Cc3ccccc32)cc1)c1ccccc1O [Example 689, N-[4-(5H-pyrrolo[2,1-c][1,4]benzodiazepin-10(11H-)-ylcarbonyl)phenyl]-2-hydroxybenzamide]",–
2.9,72,"Cc1ccccc1C(=O)Nc1ccc(C(=O)N2Cc3cccn3Cc3ccccc32)c(C)c1 [Example 691, N-[4-(5H-pyrrolo[2,1-c][1,4]benzodiazepin-10(11H)-ylcarbonyl)-3-methylphenyl]-2-methylbenzamide]",–
–,–,"Cc1ccc(F)cc1C(=O)Nc1ccc(C(=O)N2Cc3cccn3Cc3ccccc32)c(C)c1 [Example 694, N-[4-(5H-pyrrolo[2,1-c][1,4]benzodiazepin-10(11H)-ylcarbonyl)-3-methylphenyl]-5-fluoro-2-methylbenzamide]",IC50 [1]: 1.7 nM; IC50 [3]: 120 nM
–,340,"Cc1ccc(C)c(C(=O)Nc2ccc(C(=O)N3Cc4cccn4Cc4ccccc43)c(Cl)c2)c1 [Example 701, N-[4-(5H-pyrrolo[2,1-c][1.4]benzodiazepin-10(11H)-ylcarbonyl)-3-chloro-phenyl]-2,5-dimethylbenzamide]",inhibition at 1 µM [4]: 100%
61,61,"O=Cc1cccn1CC(=O)Nc1ccc(C(=O)N2Cc3cccn3Cc3ccccc32)cc1 [Example 685, N-[4-(5H-Pyrrolo[2,1-c][1,4]benzodiazepin-10(11H)-ylcarbonyl)phenyl]-2-(2-formyl-1-pyrrolo)acetamide]",–
13,1300,"O=C(Nc1ccc(C(=O)N2Cc3cccn3Cc3ccccc32)c(Cl)c1)c1c(F)cccc1C(F)(F)F [Example 698, N-[4-(5H-pyrrolo[2,1-c][1,4]benzodiazepin-10(11H)-ylcarbonyl)-3-chloro-phenyl]-2-fluoro-6-(trifluoromethyl)benzamide]",–
73,7.8,CCCCC(=O)Nc1ccc(C(=O)N2Cc3cccn3Cc3ccccc32)cc1 [Example 715],–
4,500,"Cc1c(F)cccc1C(=O)Nc1ccc(C(=O)N2CCc3cccn3-c3ccccc32)c(Cl)c1 [Example 611, N-[4-[(6,7-Dihydro-5H-pyrrolo[1,2-a]-[1,5]benzodiazepin-5-yl)carbonyl]-3-chlorophenyl]-3-fluoro-2-methyl-benzamide]",–
–,–,"COc1cc(NC(=O)c2ccccc2C)c(Cl)cc1C(=O)N1Cc2cccn2Cc2ccccc21 [Example 703, N-[4-(5H-pyrrolo[2,1-c][1,4]benzodiazepin-10(11H)-ylcarbonyl)-6-chloro-3-methoxyphenyl]-2-methylbenzamide]",inhibition at 1 µM ([1]; human V2): 87%; inhibition at 1 µM [2]: 35%
4,7,"O=C(Nc1ccc(C(=O)N2Cc3cccn3Cc3ccccc32)cc1)c1ccc(F)cc1Cl [Example 692, N-[4-(5H-pyrrolo[2,1-c][1,4]benzodiazepin-10(11H)-ylcarbonyl)phenyl]-2-chloro-4-fluorobenzamide]",–
–,–,"COc1ccc(C(=O)Nc2ccc(C(=O)N3Cc4cccn4Cc4ccccc43)c(Cl)c2)c(Cl)c1OC [Example 702, N-[4-(5H-pyrrolo[2,1-c][1,4]benzodiazepin-10(11H)-ylcarbonyl)-3-chloro-phenyl]-2-chloro-3,4-dimethoxybenzamide]",inhibition at 1 µM ([1]; human V2): 85%; inhibition at 1 µM [2]: 9%
31,2,COc1cc(C(=O)N2Cc3cccn3Cc3ccccc32)ccc1NC(=O)CC(C)C [Example 716],–
3,620,"Cc1ccccc1CC(=O)Nc1ccc(C(=O)N2Cc3cccn3Cc3ccccc32)c(Cl)c1 [Example 697, N-[4-(5H-pyrrolo[2,1-c][1,4]benzodiazepin-10(11H)-ylcarbonyl)-3-chloro-phenyl]-2-methylbenzeneacetamide]",–
41,23,CC(C)COC(=O)Nc1ccc(C(=O)N2Cc3cccn3Cc3ccccc32)cc1 [Example 714],–
5,21,"O=C(Nc1ccc(C(=O)N2Cc3cccn3Cc3ccccc32)cc1)c1ccc(F)cc1C(F)(F)F [Example 693, N-[4-(5H-pyrrolo[2,1-c][1,4]benzodiazepin-10(11H)-ylcarbonyl)phenyl]-2-(trifluoromethyl)-4-fluorobenzamide]",–
1.8,15,COc1cc(NC(=O)c2cc(F)ccc2C)ccc1C(=O)N1Cc2cccn2Cc2ccccc21 [Example 695],–

Structure (SMILES),"IC50 [1, 5] [nM]",IC50 [2] [nM],further results
"CC(=O)Oc1ccccc1C(=O)Nc1ccc(C(=O)N2Cc3cccn3Cc3ccccc32)cc1 [Example 688, N-[4-(5H-pyrrolo[2,1-c][1,4]benzodiazepin-10(11H)-ylcarbonyl)phenyl]-2-(acetoxy)benzamide]",34,69,–
